In series [1] the test system is TNF alpha release from human PBMCs. Description: Inhibition of TNF alpha release from human PBMCs. The format is cell-based. To be noted: PBMC, LPS 1 μg/ml, 18 hours, AlphaLISA. Put shortly: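 Fresh or thawed PBMCs in serum-free medium with 0.5% HSA, stimulated with 1 μg/ml LPS plus titrated compound for 18 h at 37° C. TNF-a in supernatant by AlphaLISA; window set with a reference PDE4 inhibitor at 100×IC50. EC50 and Emax from sigmoidal fits.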

Series [2] in a line: Human liver microsomes (HLM) assay. To be noted: hepatic extraction ratio; 0.5 μM compound, 0.5 mg/mL microsomes, NADPH, 37° C. The format is in vitro ADME. The method, boiled down: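 Compound at 0.5 μM incubated at 37° C. with human liver microsomes (0.5 mg/mL) and NADPH (1 mM) in phosphate buffer pH 7.4, 1% organic solvent; sampled 0-30 minutes. Clapp (mL/min/kg) and Eh (%) derived from depletion rate constant.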

The target in series [3] is T1, glucocorticoid receptor (GR), recombinant full-length receptor protein (Homo sapiens, UniProt P04150).
T1 construct: 4 nM recombinant, full-length receptor protein was incubated with increasing concentrations of GR ligand; purchased Life Technologies A-15897
T1 sequence (P04150 1-777): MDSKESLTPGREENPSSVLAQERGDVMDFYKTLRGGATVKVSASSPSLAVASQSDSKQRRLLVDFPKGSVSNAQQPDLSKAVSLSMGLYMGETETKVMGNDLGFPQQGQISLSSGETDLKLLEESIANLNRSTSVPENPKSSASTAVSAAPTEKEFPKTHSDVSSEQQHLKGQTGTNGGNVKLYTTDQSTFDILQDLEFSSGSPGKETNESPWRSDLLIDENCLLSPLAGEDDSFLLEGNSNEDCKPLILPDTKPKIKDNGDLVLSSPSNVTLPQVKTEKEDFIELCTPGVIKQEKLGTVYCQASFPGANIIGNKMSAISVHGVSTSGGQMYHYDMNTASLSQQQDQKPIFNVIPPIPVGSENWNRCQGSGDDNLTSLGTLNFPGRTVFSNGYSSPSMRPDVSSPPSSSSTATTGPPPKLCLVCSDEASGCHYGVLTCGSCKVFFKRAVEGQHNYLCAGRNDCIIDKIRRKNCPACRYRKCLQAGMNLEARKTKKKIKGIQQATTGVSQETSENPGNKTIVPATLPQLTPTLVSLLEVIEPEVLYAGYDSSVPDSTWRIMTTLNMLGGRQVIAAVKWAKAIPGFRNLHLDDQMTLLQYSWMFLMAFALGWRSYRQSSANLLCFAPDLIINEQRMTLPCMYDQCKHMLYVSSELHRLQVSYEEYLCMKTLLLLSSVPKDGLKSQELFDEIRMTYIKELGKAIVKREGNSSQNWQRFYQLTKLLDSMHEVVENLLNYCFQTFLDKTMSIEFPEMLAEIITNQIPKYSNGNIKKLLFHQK
Description: Glucocorticoid receptor binding assay (fluorescence polarization kit). To be noted: 4 nM receptor, 2.5 nM Fluormone GS1 tracer, 2h room temperature, read-out: GR binding ABS IC50. The procedure: Test compounds were diluted in DMSO over seven orders of magnitude, further diluted in assay buffer and distributed into 384-well plates. The sensitivity limit of this assay was 2-4 nM.
Data were processed by sigmoidal curve fitting.
Absolute (Abs) IC50 and Emax were determined from the curve fits.

Turning to `COCC(=O)N[C@@H](C)[C@H](Oc1ccc(C(=O)O[C@H]2CCCN(C(=O)[C@H]3COC(=O)C3)C2)cc1)c1ccc(C2CC2)cc1` [Compound 34, [(3S)-1-[(3R)-5-oxotetrahydrofuran-3-carbonyl]-3-piperidyl] 4-[(1R,2S)-1-(4-cyclopropylphenyl)-2-[(2-methoxyacetyl)amino]propoxy]benzoate], in series [1], the EC50 was < 100 nM. Further, the “HLM assay Eh (%)” value in series [2] is “* (extraction ratio (Eh)>90%)”. The IC50 in series [3] was < 100 nM.

On to `COCC(=O)N[C@@H](C)[C@H](Oc1ccc(C(=O)N[C@H]2CCCN(C(=O)[C@H]3COC(=O)C3)C2)nc1)c1ccc(C2CC2)cc1` [Compound 14, 5-[(1R,2S)-1-(4-cyclopropylphenyl)-2-[(2-methoxyacetyl)amino]propoxy]-N-[(3S)-1-[(3R)-5-oxotetrahydrofuran-3-carbonyl]-3-piperidyl]pyridine-2-carboxamide], for which, in series [1], the EC50 was < 100 nM. Moreover, the “HLM assay Eh (%)” value in series [2] is “* (extraction ratio (Eh)>90%)”. The IC50 in series [3] was in the range of 100 to 300 nM.

As for `Cc1nnc(C(=O)N[C@@H](C)[C@H](Oc2ccc(C(=O)O[C@H]3CCCN(C(=O)[C@H]4COC(=O)C4)C3)cc2)c2ccc(C3CC3)cc2)o1` [Compound 31, [(3S)-1-[(3R)-5-oxotetrahydrofuran-3-carbonyl]-3-piperidyl] 4-[(1R,2S)-1-(4-cyclopropylphenyl)-2-[(5-methyl-1,3,4-oxadiazole-2-carbonyl)amino]propoxy]benzoate], in series [1], the EC50 was < 100 nM. The “HLM assay Eh (%)” value in series [2] is on record as “* (extraction ratio (Eh)>90%)”. For the same compound, the IC50 in series [3] is < 100 nM.

Regarding `C[C@H](NC(=O)c1cscn1)[C@H](Oc1ccc(C(=O)N[C@H]2CCCN(C(=O)[C@H]3COC(=O)C3)C2)nc1)c1ccc(C2CC2)cc1` [Compound 7, N-[(1S,2R)-2-(4-cyclopropylphenyl)-1-methyl-2-[[6-[[(3S)-1-[(3R)-5-oxotetrahydrofuran-3-carbonyl]-3-piperidyl]carbamoyl]-3-pyridyl]oxy]ethyl]thiazole-4-carboxamide], the EC50 in series [1] was < 100 nM. Also, the “HLM assay Eh (%)” value in series [2] is reported as “* (extraction ratio (Eh)>90%)”. In series [3], the half-maximal inhibitory concentration (IC50) was < 100 nM.

As for `C[C@H](NC(=O)c1cnco1)[C@H](Oc1ccc(C(=O)N[C@H]2CCCN(C(=O)[C@H]3COC(=O)C3)C2)nc1)c1ccc(C2CC2)cc1` [Compound 9, N-[(1S,2R)-2-(4-cyclopropylphenyl)-1-methyl-2-[[6-[[(3S)-1-[(3R)-5-oxotetrahydrofuran-3-carbonyl]-3-piperidyl]carbamoyl]-3-pyridyl]oxy]ethyl]oxazole-5-carboxamide], the EC50 in series [1] was < 100 nM. Moreover, the “HLM assay Eh (%)” value in series [2] is given as “* (extraction ratio (Eh)>90%)”. Besides, in series [3], the IC50 fell in the range of 100 to 300 nM.

For `Cc1cc(C(=O)N[C@@H](C)[C@H](Oc2ccc(C(=O)O[C@H]3CCCN(C(=O)[C@H]4COC(=O)C4)C3)cc2)c2ccc(C3CC3)cc2)no1` [Compound 53, [(3S)-1-[(3R)-5-oxotetrahydrofuran-3-carbonyl]-3-piperidyl] 4-[(1R,2S)-1-(4-cyclopropylphenyl)-2-[(5-methylisoxazole-3-carbonyl)amino]propoxy]benzoate], the EC50 in series [1] is < 100 nM. The “HLM assay Eh (%)” value in series [2] was “* (extraction ratio (Eh)>90%)”. For the same compound, in series [3], the IC50 is < 100 nM.

For the compound `C[C@H](NC(=O)CCO)[C@H](Oc1ccc(C(=O)N[C@H]2CCCN(C(=O)[C@H]3COC(=O)C3)C2)nc1)c1ccc(C2CC2)cc1` [Compound 16, 5-[(1R,2S)-1-(4-cyclopropylphenyl)-2-(3-hydroxypropanoylamino)propoxy]-N-[(3S)-1-[(3R)-5-oxotetrahydrofuran-3-carbonyl]-3-piperidyl]pyridine-2-carboxamide], in series [1], the EC50 is < 100 nM. Further, in series [2], the “HLM assay Eh (%)” value is on record as “* (extraction ratio (Eh)>90%)”. The IC50 in series [3] was > 300 nM.

The record behind these values is patent publication US10494363B2, “Non-steroidal glucocorticoid receptor modulators for local drug delivery” (LEO PHARMA A/S, priority 2015, dated 2019).
